Experimental data: patent US8624079B2, “Knockin mouse with a disruption in a PXR gene expressing human PXR” (ITI Scotland Limited, priority 2007, dated 2014)
Several values for one entry are separate records, joined by “and”; a condition that tells them apart may be missing. Equal values may be shown once.

Tests used:
Cyp3a11 [1] = experiment: Midazolam metabolism in koCyp3a11 mice; conditions: male koCyp3a11 mice compared to male wild type mice
From the text: The also inventors studied the pharmacokinetics of midazolam (MDZ; metabolisation to form 1-hydroxymidazolam) in male koCyp3a11 mice, in comparison to male wild type mice.

Cyp3a11 [2] = experiment: Cyp3a11 protein expression in liver microsomes of treated mice by SDS-PAGE and Western blotting; conditions: mouse, in vivo, 40 mg/kg
Description: (§1) Dosing solutions were prepared on the day of administration by adding corn oil to the requisite quantity of test substance and stirring to obtain a solution or fine suspension. The concentration of PCN was 10 mg/ml and Rif 2.5 mg/ml of supplied chemical, without any correction for purity. Records of preparation were retained.
The volume of vehicle and solutions of inducing agents administered was 10 ml/kg bodyweight. This route of administration was chosen for consistency with previously published work. […]
(§2) Quantification of Cyp3a11, Cyp2b10 and PXR protein in liver microsomes of all mice samples was carried out by SDS-PAGE and Western blotting. To detect murine and human PXR protein, an antibody (RF8) was employed. For the identification of Cyp3a and Cyp2b, […] were used, (CH32 and CH4, respectively).

Cyp2b10 [3] = experiment: Cyp2b10 protein expression of treated mice by SDS-PAGE and Western blotting; conditions: for Cyp2b10 protein in pooled liver microsomes (Western blot): PB 80 mg/kg ip daily for 4 days
Description: as §1
Control animals were administered vehicle (corn oil) daily by intraperitoneal injection. The volume of vehicle and solutions of inducing agents administered was 10 ml/kg bodyweight. This route of administration was chosen for consistency with previously published work. […]
as §2

Cyp3a11 and Cyp2b10 = experiment: Comparative induction study in PXR/CAR humanised and knockout panel (Cyp3a11, Cyp2b10 protein, BQ and PROD activity); conditions: mice in which CAR had been knocked out; 40 mg/kg
From the text: The effects of phenobarbital on Cyp3a11 and Cyp2b10 induction were compared in wild type, huPXR, koPXR, huCAR, koCAR, huPXR/huCAR, koPXR/koCAR huPXR/koCAR and koPXR/huCAR mice (see FIG. 87).

liver cells = experiment: BrdU incorporation in liver (hepatic cell proliferation, S-phase labelling index); format: in vivo, mouse; conditions: for % BrDu Positive Cells, % mean (of own control) / % BrDu Positive Cells, Mean / % BrDu Positive Cells (individual mouse): liver; for cell proliferation (BrdU positive cells): huPXR/huCAR or PXRKO/CARKO mice
liver [4] = experiment: H&E histopathology of liver and small intestine; format: in vivo, mouse
From the text: Two samples of the liver (one from the lobe, one from the median lobe) and one sample of the small intestine were taken and preserved in 4% neutral buffered formaldehyde (NBF). The preserved liver samples of all mice of all groups were trimmed, processed and embedded in paraffin. The paraffin-embedded samples were sent to Progenix, Inverkeithing, UK where they were sectioned at a nominal thickness of about 5 áem and then stained with haematoxylin and eosin (H&E). One section of each organ sample was examined by Dr. Ortwin Vogel, Consultant Pathologist, Kiel, Germany. Subsequent to his histopatholoical analysis of all H&E stained mouse livers and small intestines, Dr. Vogel reported the following finding;

Cyp2b10 [5] = experiment: pentoxyresorufin-O-deethylation (PROD) and BROD activity assay in liver microsomes of treated mice; conditions: for BROD and PROD activities (Cyp2b10 / P450 induction): WT and huPXR/huCAR mice
[6] = Liver/body weight ratios (hepatomegaly); format: in vivo, mouse; conditions: PB 80 mg/kg ip daily for 4 days; for Body weight (g) - Day 5 / Liver weight / Liver/Body weight Ratio: Mean ± SD; for hepatomegaly: WT and huPXR/huCAR mice
From the text: Post operation all animals had no abnormalities detected.

Cyp3a = experiment: 7-benzyloxyquinoline (BQ) activity assay in liver microsomes of treated mice; conditions: PB 80 mg/kg ip daily for 4 days
Description: PXR activity was determined by measuring the metabolism of a number of cytochrome P450 substrates which are metabolised to different extents by different cytochrome P450 enzymes. The following assays were performed: • 7-benzyloxyquinoline (BQ) activity was determined in liver microsomes. • Testosterone hydroxylase activity was determined in liver microsomes (LMS HPLC-006). • The specific activities of these reactions was expressed per mg protein as determined using the Lowry assay (LMS Spec-0001).

liver [7] = experiment: TUNEL labelling assay (hepatic in situ cell death); format: in vivo, mouse; conditions: WT, huPXR/huCAR and PXRKO/CARKO mice; PB 80 mg/kg ip daily for 4 days
From the text: However, no such consistency has been observed in mice. An indirect TUNEL labelling assay was used to analyse hepatic in situ death (FIG. 128/Table 4). The present study has shown a marker variation in apoptotic indices in mouse liver. Thus, small (e.g. 50%) compound-induced decreases, upon a low background, were not readily demonstrable.

[8] = wild-type, koPXR or koCAR mice; 40 mg/kg
Description: For the same animals, plasma levels of alanine aminotransferase (ALT), alkaline phosphatase (ALP) and aspartate aminotransferase (AST) were also measured (see FIG. 40). […] Both compounds were administered at 40 mg/kg.
Plasma levels of alanine aminotransferase (ALT), alkaline phosphatase (ALP) and aspartate aminotransferase (AST) were also measured (see FIG. 46).

Cyp1a1/1a2 and Cyp1b1 = experiment: MROD and EROD activity in liver microsomes of treated mice; conditions: PB 80 mg/kg ip daily for 4 days
From the text: EROD activity is indicative of Cyp1a1/1a2 and Cyp1b1 in the mouse, whereas MROD is a substrate for Cyp1a2. However, other isoforms may be contributing to the measured activities. The results from the two enzyme assays are in reasonably good agreement with each other (FIG. 130a-b) As the Cyp1a2 gene is constitutively expressed, this may explain the basal levels of activity observed in both activity assays.

[9] = wild type mice; rifampicin 10 mg/kg per day for 3 days before midazolam
[10] = PXRKO/CARKO mice, PB 80 mg/kg ip daily for 4 days
[11] = PXRKO/CARKO mice, PB 80 mg/kg ip daily for 4 days, listed as PB
[12] = WT mice, PB 80 mg/kg ip daily for 4 days
[13] = huPXR/huCAR mice, PB 80 mg/kg ip daily for 4 days
[14] = PB 80 mg/kg ip daily for 4 days
[15] = PB 80 mg/kg ip daily for 4 days, listed as PB

SMILES: Cc1ncc2n1-c1ccc(Cl)cc1C(c1ccccc1F)=NC2 [midazolam]
- 1-hydroxymidazolam formation (Cyp3a11 [1]): significantly reduced

SMILES: CCC1(c2ccccc2)C(=O)NC(=O)NC1=O [phenobarbital, Phenobarbital]
- Cyp3a11 expression in liver (Western blot) (Cyp3a11 [2]): significantly reduced
- Cyp2b10 protein in pooled liver microsomes (Western blot) (Cyp2b10 [3]; PXRKO/CARKO mice): not in the PXRKO/CARKO animals
- Cyp2b10 protein in pooled liver microsomes (Western blot) (Cyp2b10 [3]; WT and huPXR/huCAR mice): induced
- Cyp2b10 expression in liver (Western blot) (Cyp2b10 [3]; koCAR mice, 40 mg/kg): significantly reduced
- Cyp2b10 expression (Western blot and PROD activity, liver) (Cyp2b10 [3]; wild-type and huCAR mice, 40 mg/kg): induced Cyp2b10 expression both in the wild-type and in huCAR mice
- induction of Cyp3a11 and Cyp2b10 protein expression or activity in the BQ and PROD assays (Cyp3a11 and Cyp2b10): Little or no induction
- % BrDu Positive Cells, % mean (of own control) (liver cells; [10]): 144%
- % BrDu Positive Cells, Mean (liver cells; [10]): 2.83%
- % BrDu Positive Cells (individual mouse) (liver cells; [11]): 2.16% and 1.98% and 1.82% and 2.30% and 3.77% and 5.10% and 3.71% and 1.88% and 3.06% and 2.51%
- increase of hepatocellular labelling index (S-phase) (liver cells; [12]): approximately 5 fold
- % BrDu Positive Cells, % mean (of own control) (liver cells; [12]): 531%
- % BrDu Positive Cells, Mean (liver cells; [12]): 9.30%
- % BrDu Positive Cells (individual mouse) (liver cells; WT mice, PB 80 mg/kg ip daily for 4 days, listed as PB): 9.45% and 5.54% and 16.69% and 6.32% and 9.50% and 8.09% and 7.64% and 13.60%
- % BrDu Positive Cells, % mean (of own control) (liver cells; [13]): 104%
- % BrDu Positive Cells, Mean (liver cells; [13]): 2.00%
- % BrDu Positive Cells (individual mouse) (liver cells; huPXR/huCAR mice, PB 80 mg/kg ip daily for 4 days, listed as PB): 0.37% and 0.-18% and 1.19% and 1.86% and 3.GO and 1.98% and 3.18% and 3.24% and 2.13%
- cell proliferation (BrdU positive cells) (liver cells; [14]): No increase in BrdU positive cells was observed
- cell proliferation (BrdU positive cells) (liver cells; [15]): appeared to have no effect on cell proliferation
- hepatocellular proliferation (% BrdU-positive cells) (liver cells; wild-type mice, phenobarbital vs unexposed control): hepatocellular proliferation only in wild-type mice
- hepatocellular hypertrophy (H&E, microscopic) (liver [4]; [10]): no unequivocal evidence of a hepatocellular hypertrophy
- pathological evidence in liver (pathologist's conclusion) (liver [4]; PXRKO/CARKO strain, PB 80 mg/kg/4days/IP): Evidence of hepatocellular hyperplasia occurred
- pathological evidence in liver (pathologist's conclusion) (liver [4]; WT and huPXR/huCAR strain, PB 80 mg/kg/4days/IP): pathological evidence of a hepatocellular hypertrophy/hyperplasia
- mitotic figures indicating hepatocellular proliferation (H&E) (liver [4]; WT, huPXR/huCAR and PXRKO/CARKO mice, PB 80 mg/kg ip daily for 4 days): noted mainly in PB-treated WT mice
- microscopic findings in the small intestine (liver [4]; all mouse lines, PB 80 mg/kg/4days/IP): No microscopic findings were recorded in the small intestine
- hepatocellular hypertrophy (H&E, microscopic) (liver [4]; huPXR/huCAR and WT mice, PB 80 mg/kg ip daily for 4 days): slight to moderate centrilobular hepatocellular hyperthrophy
- PROD or BROD activities (Cyp2b10 / P450 induction) (Cyp2b10 [5]; [11]): not altered
- BROD and PROD activities (Cyp2b10 / P450 induction) (Cyp2b10 [5]; [14]): led to both hepatomegaly and P450 induction
- BROD and PROD activities (Cyp2b10 / P450 induction) (Cyp2b10 [5]; [15]): marker Cyp2b10 induction was observed, at similar levels
- Body weight - Day 5 (% mean own control ± % SD) ([6]; PXRKO/CARKO mice): (98 ± 8) %
- Liver weight (% mean own control ± % SD) ([6]; PXRKO/CARKO mice): (98 ± 16) %
- Liver/Body weight Ratio (% mean own control ± % SD) ([6]; PXRKO/CARKO mice): (100 ± 9) %
- Body weight (g) - Day 5 ([6]; PXRKO/CARKO mice): 26.6 ± 2.2 g
- Liver weight ([6]; PXRKO/CARKO mice): 1.42 ± 0.23 g
- Liver/Body weight Ratio ([6]; PXRKO/CARKO mice): 5.3 ± 0.4
- hepatomegaly [6]: led to both hepatomegaly and P450 induction
- hepatomegaly ([6]; listed as PB): observed
- Body weight - Day 5 (% mean own control ± % SD) ([6]; WT mice): (84 ± 5) %
- Liver weight (% mean own control ± % SD) ([6]; WT mice): (101 ± 6) %
- Body weight (g) - Day 5 ([6]; WT mice): 23.2 ± 1.3 g
- Liver weight ([6]; WT mice): 1.44 ± 0.09 g
- Liver/Body weight Ratio ([6]; WT mice): 6.2 ± 0.2
- Body weight - Day 5 (% mean own control ± % SD) ([6]; huPXR/huCAR mice): (99 ± 6) %
- Liver weight (% mean own control ± % SD) ([6]; huPXR/huCAR mice): (121 ± 11) %
- Body weight (g) - Day 5 ([6]; huPXR/huCAR mice): 25.4 ± 1.5 g
- Liver weight ([6]; huPXR/huCAR mice): 1.69 ± 0.16 g
- Liver/Body weight Ratio ([6]; huPXR/huCAR mice): 6.7 ± 0.6
- Cyp3a11 induction (BQ activity) (Cyp3a; PXRKO/CARKO mice): absence of Cyp3a11 induction
- increase in BQ activity (Cyp3a; WT mice): marginal increase
- increase in BQ activity (Cyp3a; huPXR/huCAR mice): 5 fold
- hepatic apoptotic indices (TUNEL), PB-treated vs control (liver [7]): no statistical significance found
- hepatotoxicity (liver/body weight ratio, plasma ALT, ALP, AST) [8]: No hepatotoxicity was detected
- MROD and EROD enzyme activities (Cyp1a1/1a2 and Cyp1b1; PXRKO/CARKO line): no increase
- MROD and EROD enzyme activities (Cyp1a1/1a2 and Cyp1b1; WT and huPXR/huCAR mice): increased

SMILES: CO[C@H]1/C=C/O[C@@]2(C)Oc3c(C)c(O)c4c(O)c(c(/C=N/N5CCN(C)CC5)c(O)c4c3C2=O)NC(=O)/C(C)=C\C=C\[C@H](C)[C@H](O)[C@@H](C)[C@@H](O)[C@@H](C)[C@H](OC(C)=O)[C@@H]1C [rifampicin]
- induction of Cyp2b10 expression (Cyp2b10 [3]; mouse, in vivo): did not induce
- induction of Cyp2b10 expression and PROD activity (Cyp2b10 [3]; mouse, in vivo): only in the huPXR.1 mouse, but not in the wild type or in the huPXR mouse
- induction of Cyp2b10 protein (Western blot) (Cyp2b10 [3]; mouse, in vivo, ip): not markedly induced
- induction of Cyp2b10 activity (Cyp2b10 [5]; wild-type or huPXR mice, rifampicin): did not induce
- effect of rifampicin pre-treatment on midazolam pharmacokinetics [9]: no significant effect was observed
